The record followed here is patent publication US4069318A, “N^2 -Alkoxynaphthalenesulfonyl-L-argininamides and the pharmaceutically acceptable salts thereof” (Mitsubishi Chemical Industries Ltd., priority 1974, dated 1978).

A short description of data set [1]: acute toxicity (LD50) by intraperitoneal administration in mice. The settings on record: mouse, in vivo, ip, mice (male, 20 g). An excerpt:
On the other hand, LD50 values for N^2 -dansyl-N-butyl-L-argininamide and N^2 -dansyl-N-methyl-N-butyl-L-argininamide are 75 and 70 milligrams per kilogram, respectively.

The target in the next data set is T1, thrombin (Bos taurus, UniProt P00735).
T1 construct: bovine fibrinogen as substrate
The data set is described as follows: fibrinogen coagulation time (thrombin-induced). Type of data set: biochemical. The settings on record: bovine fibrinogen, thrombin 5 units/ml, borate saline buffer pH 7.4, 25° C; control 50-55 seconds; read-out: Concentration required to prolong the coagulation time by a factor of two. Here is the method: Immediately after mixing, the reaction mixture was transferred from the ice bath to a bath maintained at 25° C. Coagulation times were taken as the period between the time of transference to the 25° C bath and the time of the first appearance of fibrin threads.

SMILES strings stand for the structures.

The LD50 is the dose at which mortality reaches 50%. A low value points to greater toxicity.

`COc1cc2ccc(S(=O)(=O)N[C@@H](CCCNC(=N)N)C(=O)N(CCc3ccccc3)CC(=O)O)cc2cc1OC` [Sample 6, N^2-(6,7-dimethoxy-2-naphthalenesulfonyl)-L-arginyl-N-phenethylglycine] returned an LD50 in data set [1] greater than 1500 mg/kg.
On to `COc1cccc2c(S(=O)(=O)N[C@@H](CCCNC(=N)N)C(=O)N(CC(=O)O)Cc3ccccc3)cccc12` [Sample 18, N^2-(5-methoxy-1-naphthalenesulfonyl)-L-arginyl-N-benzylglycine], for which the IC (2-fold clotting time) on thrombin was 2 µM. In addition, in data set [1], the LD50 is greater than 1000 mg/kg.
Consider `COc1cc2ccc(S(=O)(=O)N[C@@H](CCCNC(=N)N)C(=O)N(CC(=O)O)Cc3ccccc3)cc2cc1OC` [Sample 2, N^2-(6,7-dimethoxy-2-naphthalenesulfonyl)-L-arginyl-N-benzylglycine], for which, in data set [1], the LD50 was greater than 1000 mg/kg.
The compound `CCCCN(C)C(=O)[C@H](CCCNC(=N)N)NS(=O)(=O)c1cccc2c(N(C)C)cccc12` [N^2 -dansyl-N-methyl-N-butyl-L-argininamide, reference compound] had an LD50 in data set [1] of 70 mg/kg.
Take `COc1ccc2cc(S(=O)(=O)N[C@@H](CCCNC(=N)N)C(=O)N(CC(=O)O)Cc3ccccc3)cc(OC)c2c1` [Sample 10, N^2-(4,6-dimethoxy-2-naphthalenesulfonyl)-L-arginyl-N-benzylglycine]: the LD50 in data set [1] is greater than 1000 mg/kg.
The same measure, in the same setting: then `CCCCNC(=O)[C@H](CCCNC(=N)N)NS(=O)(=O)c1cccc2c(N(C)C)cccc12` [N^2 -dansyl-N-butyl-L-argininamide, reference compound], with 75 mg/kg.
